Data from ChEMBL document CHEMBL1201862, “PubChem BioAssay data set” (2004).
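Method: 48-hour compound exposure of cells in 96-well plates, five concentrations, linear interpolation of endpoints. The concentration for 50% growth inhibition is given as GI50.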 Active and inactive are the calls of the source. No stated cut-off is given here; in the data, active = GI50 up to about 1.1 µM and inactive = higher. Where a SMILES comes first, the peptide text is derived from it. The star is where a group is joined. Boc = CC(C)(C)OC(=O)*; OSu = O=C1CCC(=O)N1O*

Legend:
Test in all cases: NCI-60 cell line screen, 48 h
COLO 205 = system: COLO 205
HCC 2998 = system: HCC 2998
786-0 = system: 786-0
T47D = system: T47D
HOP-62 = system: HOP-62
HOP-92 = system: HOP-92
MDA-MB-435 = system: MDA-MB-435
MDA-MB-231 = system: MDA-MB-231
KM12 = system: KM12
UACC-62 = system: UACC-62
UO-31 = system: UO-31
HCT-116 = system: HCT-116
A549 = system: A549
RPMI-8226 = system: RPMI-8226
HT-29 = system: HT-29
NCI-H522 = system: NCI-H522
MCF7 = system: MCF7
MOLT-4 = system: MOLT-4
SNB-75 = system: SNB-75
HL-60 = system: HL-60

Measured: GI50

Cc1[nH]c(C)c(CN(C)C)c1CN(C)C
inactive: COLO 205 > 100 µM | HCC 2998 > 100 µM | 786-0 > 100 µM | T47D > 100 µM | HOP-62 > 100 µM | HOP-92 > 100 µM | MDA-MB-435 > 100 µM | MDA-MB-231 > 100 µM | KM12 > 100 µM | UACC-62 > 100 µM | UO-31 > 100 µM | HCT-116 > 100 µM | A549 > 100 µM | RPMI-8226 > 100 µM | HT-29 > 100 µM | NCI-H522 > 100 µM | MCF7 > 100 µM

COc1ccc(C2=NNC(=O)c3ccccc3N2c2nc(-c3cccs3)nc3cc(OC)c(OC)cc23)cc1
inactive: COLO 205 2.86 µM | HCC 2998 2.96 µM | 786-0 2.32 µM | T47D 2.76 µM | HOP-62 3.13 µM | HOP-92 2.86 µM | MOLT-4 16.6 µM | MDA-MB-435 3.75 µM | MDA-MB-231 2.81 µM | KM12 4.09 µM | UACC-62 2.34 µM | UO-31 4.34 µM | HCT-116 3.92 µM | A549 5.6 µM | RPMI-8226 3.71 µM | SNB-75 3.81 µM | HT-29 3.15 µM | NCI-H522 5.98 µM | MCF7 3.36 µM

COc1ccc(/C=C2/N/C(=N\N=C/C(O)C(O)C(O)C(O)CO)NC2=O)cc1 (stereo not given)
inactive: COLO 205 > 100 µM | HCC 2998 > 100 µM | 786-0 > 100 µM | T47D 62.1 µM | HOP-62 > 100 µM | HOP-92 > 100 µM | MOLT-4 > 10 µM | MDA-MB-435 > 100 µM | MDA-MB-231 > 100 µM | KM12 > 100 µM | UO-31 > 100 µM | HCT-116 > 100 µM | A549 > 100 µM | RPMI-8226 > 100 µM | SNB-75 > 100 µM | HT-29 > 100 µM | NCI-H522 > 100 µM | HL-60 33 µM | MCF7 40.1 µM

COc1ccc2nc3cc([N+](=O)[O-])ccc3c(Nc3ccc(S(=O)(=O)NC(C)=O)cc3)c2c1
inactive: COLO 205 51.3 µM | HCC 2998 56.6 µM | 786-0 47 µM | T47D > 100 µM | HOP-62 > 100 µM | HOP-92 > 100 µM | MOLT-4 29.4 µM | MDA-MB-435 76.4 µM | MDA-MB-231 50 µM | UACC-62 73.3 µM | UO-31 73.6 µM | HCT-116 44 µM | A549 > 100 µM | RPMI-8226 22.1 µM | HT-29 65 µM | NCI-H522 33.2 µM | HL-60 26.5 µM | MCF7 30.8 µM

CNc1nc(=O)c(C#N)c(-c2ccc(C)cc2)s1
inactive: COLO 205 > 100 µM | HCC 2998 > 100 µM | 786-0 > 100 µM | T47D > 100 µM | HOP-92 > 100 µM | MOLT-4 > 100 µM | MDA-MB-435 > 100 µM | MDA-MB-231 > 100 µM | KM12 > 100 µM | UACC-62 > 100 µM | UO-31 > 100 µM | HCT-116 > 100 µM | A549 > 100 µM | SNB-75 > 100 µM | HT-29 > 100 µM | NCI-H522 59.3 µM | HL-60 53.7 µM | MCF7 > 100 µM

COc1ccc(C(=O)N(C(=O)N2CCN(c3ccccc3)CC2)S(=O)(=O)c2ccccc2)cc1
inactive: COLO 205 17.9 µM | HCC 2998 52.6 µM | 786-0 29.9 µM | T47D 23 µM | HOP-62 35 µM | HOP-92 25.4 µM | MOLT-4 19.5 µM | MDA-MB-435 29.5 µM | MDA-MB-231 25.3 µM | KM12 31.6 µM | UACC-62 18.3 µM | UO-31 13.6 µM | HCT-116 18.8 µM | A549 28.4 µM | SNB-75 32.7 µM | HT-29 28.1 µM | NCI-H522 15.4 µM | HL-60 22.1 µM | MCF7 29.6 µM

N#CCCC(C=O)(CCC#N)CCC#N
inactive: COLO 205 > 100 µM | HCC 2998 > 100 µM | 786-0 > 100 µM | T47D > 100 µM | HOP-92 > 100 µM | MDA-MB-435 > 100 µM | MDA-MB-231 > 100 µM | KM12 > 100 µM | UACC-62 > 100 µM | UO-31 > 100 µM | HCT-116 > 100 µM | A549 > 100 µM | SNB-75 > 100 µM | HT-29 > 100 µM | NCI-H522 > 100 µM | HL-60 > 100 µM | MCF7 > 100 µM

O=c1cc(-c2cccnc2)[nH]c2cc3c(cc12)OCO3
inactive: COLO 205 13.9 µM | HCC 2998 7.4 µM | 786-0 33.3 µM | T47D > 100 µM | HOP-62 7.5 µM | HOP-92 13.5 µM | MOLT-4 17.1 µM | MDA-MB-435 1.84 µM | MDA-MB-231 29.6 µM | KM12 3.77 µM | UACC-62 3.3 µM | UO-31 44.4 µM | HCT-116 4.8 µM | A549 19.2 µM | RPMI-8226 34 µM | SNB-75 3.29 µM | HT-29 6.59 µM | HL-60 7.35 µM | MCF7 5.92 µM

CC(=O)OC12c3ccccc3-c3ccccc3C1C1C(=O)N(C)C(=O)C12Cl (stereo not given)
inactive: COLO 205 > 10 µM | HCC 2998 > 10 µM | 786-0 > 10 µM | T47D > 10 µM | HOP-62 > 10 µM | HOP-92 > 10 µM | MOLT-4 > 10 µM | MDA-MB-435 > 10 µM | MDA-MB-231 > 10 µM | KM12 > 10 µM | UO-31 > 10 µM | RPMI-8226 > 10 µM | SNB-75 > 10 µM | HT-29 > 10 µM | NCI-H522 > 10 µM | HL-60 > 10 µM | MCF7 > 10 µM

CCCCCCCCC/C=C1\CC(CO)(COC(=O)C2CCCCC2)OC1=O (stereo not given)
inactive: COLO 205 13.6 µM | HCC 2998 23.7 µM | 786-0 14.9 µM | T47D 20.9 µM | HOP-62 13.4 µM | HOP-92 8.17 µM | MOLT-4 21.7 µM | MDA-MB-435 13.5 µM | MDA-MB-231 19.7 µM | KM12 20.4 µM | UACC-62 21.5 µM | UO-31 20.1 µM | HCT-116 23 µM | A549 19.4 µM | SNB-75 15.8 µM | HT-29 19.7 µM | NCI-H522 18.3 µM | MCF7 23.2 µM

CC(NC(=O)C(NC(=O)OC(C)(C)C)C(C)C)C(=O)NCC(=O)ON1C(=O)CCC1=O (stereo not drawn) (Boc-Val-Ala-Gly-OSu; configuration not given here)
inactive: COLO 205 > 100 µM | HCC 2998 > 100 µM | 786-0 > 100 µM | T47D > 100 µM | HOP-62 > 100 µM | HOP-92 22.8 µM | MOLT-4 45.9 µM | MDA-MB-435 > 100 µM | MDA-MB-231 > 100 µM | KM12 > 100 µM | UACC-62 > 100 µM | UO-31 > 100 µM | HCT-116 > 100 µM | A549 > 100 µM | RPMI-8226 > 100 µM | SNB-75 > 100 µM | HT-29 > 100 µM | NCI-H522 63.4 µM | MCF7 > 100 µM
